Data on 3 compounds can be found in patent US12497396B2, “Nitrogen-containing heterocyclic derivatives, method therefor and application therefor as inhibitors of KRAS G12C for the treatment of cancers” (SHANGHAI HANSOH BIOMEDICAL CO., LTD., priority 2019, dated 2025).

A short description of series [1]: Plasma protein binding rate, rat plasma. The following applies: 37° C. It is filed as in vitro ADME. The procedure:
(§1) The embodiment compound was prepared into a 1 mM solution A with DMSO.
(§2) Solution A was added to the plasma solution and prepared into a 5 μM solution B.
(§3) • 1) 200 μL of solution B was added into the membrane. • 2) 350 μL of PBS was added to the outside of the membrane. • 3) Incubating in a 37° C. water bath for 6 hours. • 4) The samples were processed for dilution and detected by mass spectrometry.
(§4) • Instrument: Shimadzu LC-20 AD; • Chromatographic column: phenomenex Gemiu® C18 (50*4.6 mm, 5 μM particle size); • Mobile phase: A: Acetonitrile, B: 0.1% formic acid solution 0-0.5 min: 5% A→90% A, 2.0-2.1 min: 90% A→5% A; flow rate: 0.8 mL/min; running time: 5.0 min; injection volume: 5 μL.
(§5) • Instrument: API4000 Liquid Chromatography-Mass Spectrometry, AB, USA; • the ion source was electrospray ionization source (ESI); • the temperature of dry gas (N2) was 500° C.; • electrospray voltage was 5500V; • the detection method was positive ion detection; • the scanning mode was selective response monitoring (MRM); the scanning time was 0.1 s.

Series [2] in a line: Plasma protein binding rate, mouse plasma. To be noted: 37° C. The format is in vitro ADME. The procedure: as §1, §2, §3, §4, §5
For series [3], the system named is Mia PaCa-2 cells (KRAS G12C mutant cell line). The experiment in a line: Inhibition of Mia PaCa-2 cell proliferation (CellTiter-Glo, 72 h). It is filed as cell-based, human. To be noted: Homo sapiens. Put shortly:
(§6)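 Cells were seeded overnight at 37 °C, 5% CO2, then exposed to serially diluted compound (DMSO/medium) alongside a solvent control for 72 h. Viability was read by CellTiter-Glo luminescence, and IC50 was derived by nonlinear regression of inhibition rate against concentration.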
Background: Cellular ATP, detected with luciferase, serves as a proxy for viable cell number.

The subject of series [4] is NCI-H358 cells (KRAS G12C mutant cell line). The experiment in a line: Inhibition of NCI-H358 cell proliferation (CellTiter-Glo, 72 h). To be noted: Homo sapiens. The format is cell-based, human. Put shortly:
as §6

The subject of series [5] is phosphorylated ERK in KRAS G12C mutant cells Mia PaCa-2. Nature of the series: Inhibition of phosphorylated ERK level in Mia PaCa-2 cells (LANCE Ultra). The format is cell-based. To be noted: Homo sapiens, 2 hours, read-out: Mia PaCa-2 pERK IC50. The source says: As a preferred embodiment of the present disclosure, the method for detecting the inhibitory activity of phosphorylated ERK level is as follows: through cell culture, adding different concentrations of compound solutions to the cultured cells, continuing the culture for a period of time, lysing the cells, followed by centrifugation and […]; • further, the method of cell culture is: adjusting the cells to a suitable cell concentration with a complete medium, preferably the cell concentration is 1×10^6/mL, and spreading the cell suspension on a well plate for culture.
When Mia PaCa-2 cells were cultured to the appropriate fusion level, Mia PaCa-2 cells were collected, and the cell density was adjusted to 1×10^6/mL using complete culture medium, the cell suspension was spread on a 96-well plate, 50 μL per well, and placed adherent to the wall in a 37° C., 5% CO2 incubator overnight, compound solutions with different concentrations were prepared using DMSO and complete culture medium, a solvent control was set, the compound solution was added to a 96-well plate, 25 μL per well, and placed in a 37° C., 5% CO2 incubator for 2 hours of continuous culture, the supernatant was discarded from the cell culture plate, 50 μL of lysis solution was added to each well, and lysing was performed for 30 minutes by shaking at room temperature, then the mixture was centrifuged at 1000 rpm for 1 minute, 15 μL of supernatant was transferred to 384 well plate, 5 μL of detection mixture (Eu-labeled anti-ERK1/2 (T202-Y204) antibody with final concentration of 0.5 nM and ULight labeled anti-ERK1/2 antibody with final concentration of 5 nM) was added to each well, centrifuged at 1000 rpm for 1 minute and mixed uniformly, the reaction was carried out overnight at room temperature, the plate was read with BioTek Synergy H1, and the signal values was detected at 620 nm and 665 nm emission wavelengths by time-resolved fluorescence program.
The ratio of the signal values at 665 nm and 620 nm emission wavelength were calculated, and the ratio was used to calculate the inhibition rate, the concentration and the inhibition rate were fitted to a nonlinear regression curve using Graphpad Prism software, then the IC50 value was obtained.

By fraction unbound is commonly meant free concentration divided by total concentration. A low value points to little free substance. What is called IC50 is the concentration that gives 50% inhibition. `C=CC(=O)N1C[C@H](C)N(c2nc(=O)n(-c3c(SC)ccnc3C(C)C)c3nc(-c4c(O)cccc4F)c(F)cc23)C[C@H]1C` (single isomer, unassigned) [Embodiment 114-1]: the fraction unbound at 6 h, 5 μM is 0.095 in series [1] and 0.116 in series [2]. Moreover, the IC50 in series [3] worked out at 29 nM; in series [4], 35 nM; in series [5], 38 nM.
Taken in the same sequence, the figures for `C=CC(=O)N1C[C@H](C)N(c2nc(=O)n(-c3c(SC)ccnc3C(C)C)c3nc(-c4c(N)ccc(Cl)c4F)c(Cl)cc23)C[C@H]1C` (single isomer, unassigned) [Embodiment 165-1] were 0.021, 0.061, 3.3 nM, 6.6 nM and 4.2 nM.
For `C=CC(=O)N1C[C@H](C)N(c2nc(=O)n(-c3c(SC)ccnc3C(C)C)c3nc(-c4c(O)cccc4F)c(Cl)cc23)C[C@H]1C` (single isomer, unassigned) [Embodiment 166-1], in that order: 0.046, 0.037, 11 nM, 17 nM and 20 nM.
